Key:
ERK = ERK phosphorylation in rat lamina I dorsal horn neurons in vivo; details: i.t. 30 min before intraplantar capsaicin
Method: Painful peripheral stimuli activate ERK in NKiR-expressing spinal neurons, which coincides with receptor endocytosis and contributes to hyperalgesia. Intraplantar capsaicin stimulated ERK phosphorylation in lamina I dorsal horn neurons (FIG. 5B). […] Thus, capsaicin stimulates clathrin- and dynamin-dependent NK1R endocytosis and ERK activation in spinal neurons in vivo.
After 10 min, rats were transcardially perfused with PBS and then 4% PFA. The spinal cord was removed, immersion fixed in PFA (2 h, 4° C.), and cryoprotected (30% sucrose, PBS, 24 h, 4° C.). The spinal cord (T12 to L4) was embedded in OCT and […] serial coronal sections were cut into 48-well plates containing PBS. Free-floating sections were blocked in PBS containing 10% normal horse serum (1 h, RT). […]
Tissues and cells were observed using a Leica SP8 confocal microscope using HCX PL APO 40× (NA 1.30) and HCX PL APO 63× (NA 1.40) oil objectives. […] NK1R endocytosis and pERK expression were quantified using ImageJ. To quantify NK1R internalization in lamina I neurons, the border of the cytoplasm of the neuronal soma was defined by NeuN fluorescence, and NK1R fluorescence within 5 pixels (0.5 μm) of the border was defined as plasma membrane-associated receptor. The ratio of plasma membrane to cytosolic NK1R-IR fluorescence was determined in >6 lamina I neurons per condition. […]

[1] = system: motor coordination of mice; assay: Rotarod; assay type: in vivo, mouse; details: i.t. 50 μM
Method: Mice were acclimatized by 3 trials on 2 successive days before experiments. Mice were trained to remain on the rotarod for three consecutive periods. On the experimental day, three baseline time trials (cut-off 120 s) were recorded. […] After 30 min, mice were placed on the rotarod with accelerating velocity for up to 120 s. Times were recorded in 3 successive trials, and latency time to fall was determined at 30, 90 and 120 min

NK1R [2] = assay: NK1R endocytosis in neurons of mouse dorsal horn; assay type: in vivo; details: intrathecal
[3] = system: SP-IR and CGRP-IR release; assay: Neuropeptide release from mouse dorsal spinal cord; details: 30 μM; capsaicin 0.3 μM, 10 min
Method: Slices (0.4 mm) of mouse dorsal spinal cord (combined cervical, thoracic, lumbar-sacral segments) were superfused (0.4 ml·min^−1) with Krebs' solution (mM: NaCl 119, NaHCO3 25, KH2PO4 1.2, MgSO4 1.5, CaCl2 2.5, KCl 4.7, D-glucose 11 mM; […], 37° C.) containing 0.1% BSA, 1 μM phosphoramidon and 1 μM captopril. […] Tissues were then superfused with capsaicin (0.3 μM, 10 min) in the presence of inhibitors or controls. Superfusate (10 min collections, 4 ml) was collected before, during and after capsaicin stimulation, and analyzed for SP-IR and CGRP-IR (Bertin Pharma). […] Detection limits of the assays were 2 pg·ml^−1 for SP-IR and 5 pg·ml^−1 for CGRP-IR. Results are expressed as fmol·g^−1·20 min^−1.

NK1R [4] = molecular target: NK1R (Rattus norvegicus, UniProt P14600); assay: BRET of NK1R trafficking (KRas-Venus, Rab5a-Venus) in HEK293 cells; assay type: cell-based; parameters: Full length and truncated 6312 rat HA-NK1R have been described; expressed in transfected cells; host or cells: HEK293 (transient); details: inhibitor plus SP
NK1R (Rattus norvegicus, UniProt P14600), sequence (P14600 whole entry, the tested form may be a part): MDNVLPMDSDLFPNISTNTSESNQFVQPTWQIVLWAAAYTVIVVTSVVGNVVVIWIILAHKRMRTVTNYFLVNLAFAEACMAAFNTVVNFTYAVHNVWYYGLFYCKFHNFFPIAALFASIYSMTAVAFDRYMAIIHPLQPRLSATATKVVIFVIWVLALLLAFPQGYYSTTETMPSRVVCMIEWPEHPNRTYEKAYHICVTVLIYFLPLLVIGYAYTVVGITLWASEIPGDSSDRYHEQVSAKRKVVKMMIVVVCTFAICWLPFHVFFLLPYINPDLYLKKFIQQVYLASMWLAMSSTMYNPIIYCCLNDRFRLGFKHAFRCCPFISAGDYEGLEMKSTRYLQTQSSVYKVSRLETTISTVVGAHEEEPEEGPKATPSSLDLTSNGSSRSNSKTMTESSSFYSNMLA
Method: Bioluminescence Resonance Energy Transfer (BRET) was employed to quantitatively assess the proximity of the NK1R to key regulators of GPCR trafficking (βarrs), and resident proteins of plasma (KRas) and early endosomal (Rab5a) membranes in HEK293 cells (FIG. 1A).
HEK293 cells were transfected with the following cDNAs: 1 μg NK1R-RLuc8 or 1 μg CLR-RLuc8+1 μg Myc-RAMP1+4 μg KRas-Venus, 4 μg Rab5a-Venus, 4 μg βarr1-YFP, or 4 μg βarr2-YFP; or 1 μg NK1R+0.5 μg Gαq-RLuc8+1 μg Gβ1+4 μg Gγ2-Venus; or 1 μg NK1R+0.5 μg Gαq-RLuc8+1 μg Gβ1+1 μg Gγ2+4 μg Rab5a-Venus. After 48 h, cells were equilibrated in Hank's balanced salt solution (HBSS) at 37° C., and incubated with the RLuc substrate coelenterazine h (5 μM, 15 min).

SMILES	effect on capsaicin-evoked activation of spinal ERK (ERK)	effect on rotarod latency [1]	effect on capsaicin-, formalin- and CFA-evoked NK1R endocytosis in mouse dorsal horn neurons (NK1R [2])	effect on basal or capsaicin-stimulated release of SP-IR and CGRP-IR [3]	effect on SP-induced NK1R endocytosis (BRET KRas-Venus decrease, Rab5a-Venus increase) (NK1R [4])
O=C(N/N=C/c1cc(O)c(O)cc1O)c1cc2ccccc2cc1O [Dy4]	prevented capsaicin-evoked activation of spinal ERK	did not affect	inhibited	did not affect	blocked
O=C1NC(=NS(=O)(=O)c2cccc3ccccc23)S/C1=C\c1ccc(Br)cc1 [PS2]	prevented capsaicin-evoked activation of spinal ERK	did not affect		did not affect	blocked
